# “Also recorded” adds a separate entry of the source.
# What was measured:
# [1] = system: Staphylococcus aureus (MB 210); experiment: in vitro activity; assay type: cell-based
# [2] = system: Klebsiella pneumoniae (MB 1264); experiment: in vitro activity; assay type: cell-based
# gram-positive bacteria = experiment: antibacterial activity; assay type: cell-based
# Bacillus subtilis 964 = experiment: Antibiotic Spectrum Profile, agar diffusion test; assay type: cell-based; conditions: 1 mg./ml., read-out: Diameters of Inhibition Zones
# [3] = system: Klebsiella pneumoniae 1264; experiment: Antibiotic Spectrum Profile, agar diffusion test; assay type: cell-based; conditions: 1 mg./ml., read-out: Diameters of Inhibition Zones
# Strep. pyogenes = experiment: in vivo test in mice, Strep. pyogenes infection; conditions: infection IP, therapy IP, at time of infection and 6 hours later
# Protocol: (§1) *Values in the table are expressed in mg./mouse. Both infections and
# (§2) therapeutic doses of FR-02A were administered intraperitoneally. FR-02A
# (§3) was administered at time of infection and again 6 hours later.
# [4] = system: Bordetella bronchiseptica; experiment: systemic infections produced by Bordetella bronchiseptica in mice; assay type: in vivo; conditions: orally
# S. aureus 3032 = experiment: Antibiotic Spectrum Profile, agar diffusion test; assay type: cell-based; conditions: Staphylococcus aureus, 1 mg./ml., read-out: Diameters of Inhibition Zones
# Bordetella = experiment: in vitro activity; assay type: cell-based
# species of Mycoplasma = experiment: activity against Mycoplasma; assay type: cell-based
# Sarcina lutea 1101 = experiment: Antibiotic Spectrum Profile, agar diffusion test; assay type: cell-based; conditions: Micrococcus luteus, 1 mg./ml., read-out: Diameters of Inhibition Zones
# [5] = system: Staphylococcus aureus 108; experiment: Antibiotic Spectrum Profile, agar diffusion test; assay type: cell-based; conditions: 1 mg./ml., read-out: Diameters of Inhibition Zones
# Erwinia auroseptica 1159 = experiment: Antibiotic Spectrum Profile, agar diffusion test; assay type: cell-based; conditions: 1 mg./ml., read-out: Diameters of Inhibition Zones
# PPLO [6] = experiment: PPLO in pigs; assay type: in vivo
# Streptococcus faecum = experiment: in vitro activity; assay type: cell-based
# Vibrio percolans = experiment: agar-diffusion bioassay using Vibrio percolans; assay type: cell-based; conditions: Comamonas terrigena; concentration of 200 μ/ml.; LH-20 product
# Protocol: A 0.5 ml. solution of methanol containing 106 mg. of FR-02A obtained from Example 1 above is charged to a 75 ml. bed (1.25 cm. dia. × 56 cm. ht.) of Sephadex LH-20 gel in methanol (Pharmacia Fine Chemicals, Inc., Piscataway, N.J.). The column is developed with methanol. […] Fractions are bioassayed at a 1-10 dilution with 1/2 dia. paper discs on agar-diffusion assay plates seeded with Vibrio percolans. Zones of inhibition are obtained corresponding to the third mass peak (KD = 0.3) detected. The fractions corresponding to the third mass peak are combined and evaporated to yield 43 mg. of FR-02A.
# The product when assayed in the above agar-diffusion bioassay using Vibrio percolans gives a 16 mm. zone of inhibition at a concentration of 200 μ/ml. The U.V. absorption in pH 7.0 phosphate buffer was: […]
# Ps. stutzeri 1231 = experiment: Antibiotic Spectrum Profile, agar diffusion test; assay type: cell-based; conditions: Stutzerimonas stutzeri, 1 mg./ml., read-out: Diameters of Inhibition Zones
# E. coli 60 = experiment: Antibiotic Spectrum Profile, agar diffusion test; assay type: cell-based; conditions: Escherichia coli, 1 mg./ml., read-out: Diameters of Inhibition Zones
# S. aureus 2756 = experiment: Antibiotic Spectrum Profile, agar diffusion test; assay type: cell-based; conditions: Staphylococcus aureus, 1 mg./ml., read-out: Diameters of Inhibition Zones
# E. acervulina = experiment: in vitro activity; assay type: cell-based
# PPLO [7] = experiment: PPLO in chickens; assay type: in vivo
# Aerobacter aerogenes 835 = experiment: Antibiotic Spectrum Profile, agar diffusion test; assay type: cell-based; conditions: Klebsiella aerogenes, 1 mg./ml., read-out: Diameters of Inhibition Zones
# M. gallisepticum = M. gallisepticum air sacculitis in broilers; assay type: in vivo
# [8] = system: Pseudomonas aeruginosa (MB 3210); experiment: in vitro activity; assay type: cell-based
# gram-negative bacteria = experiment: antibacterial activity; assay type: cell-based
# Streptococcus faecalis = experiment: in vitro activity; assay type: cell-based
# Proteus vulgaris 1012 = experiment: Antibiotic Spectrum Profile, agar diffusion test; assay type: cell-based; conditions: 1 mg./ml., read-out: Diameters of Inhibition Zones
# [9] = toxicity studies in noninfected mice; assay type: in vivo; conditions: for Toxicity, Tolerated / Toxicity, Toxic: IP
# Protocol: as §1, §2, §3
# **Toxicity studies of FR-02A in noninfected mice indicate that two doses
# of 2.5 mg./mouse, 6 hours apart are tolerated; but higher doses i.e. 5 to […]
# [10] = system: Bacillus subtilis (MB 964); experiment: in vitro activity; assay type: cell-based
# species of Pasteurella = experiment: in vitro activity; assay type: cell-based
# Alcaligenes faecalis 10 = experiment: Antibiotic Spectrum Profile, agar diffusion test; assay type: cell-based; conditions: 1 mg./ml., read-out: Diameters of Inhibition Zones
# [11] = system: Salmonella gallinarum 1287; experiment: Antibiotic Spectrum Profile, agar diffusion test; assay type: cell-based; conditions: Salmonella enterica, 1 mg./ml., read-out: Diameters of Inhibition Zones
# M. arthritidis = experiment: in vitro activity; assay type: cell-based
# Bacillus sp. 633 = experiment: Antibiotic Spectrum Profile, agar diffusion test; assay type: cell-based; conditions: 1 mg./ml., read-out: Diameters of Inhibition Zones
# Protocol: To further characterize FR-02A in vitro, activity data for it was obtained using an antibiotic spectrum profile. The test involves applications of a droplet of antibiotic approximately 0.015 ml. on the surface of seeded complex agar plates. […] The results are reported in Table 1 in terms of mm. of inhibition zones.
# solubility = assay type: physicochemical; conditions: water-immiscible organic solvents
# Streptococcusagalactiae = experiment: in vitro activity; assay type: cell-based
# stability to handling = assay type: physicochemical; conditions: pale yellow solid
# coccidia = experiment: mouse coccidiosis; conditions: in vivo
structure (smiles),measurement,setting,value
"CC=CC=CC1OC(O)(C(CC)C(=O)NCC=CC=C(C)C(OC)C(C)C2OC(C=CC=CC=C(C)C(=O)c3c(O)ccn(C)c3=O)C(O)C2O)C(O)C(OC2OC(C)C(OC3OC(C)C(OC)C(O)C3OC)C(OC)C2O)C1(C)C (centres unmarked) [FR-02A, efrotomycin]",activity,[1],Activity was also found
same,activity,[2],Activity was also found
same,activity against gram-positive bacteria,gram-positive bacteria,shows activity; also recorded: effective
same,zone of inhibition at 1000 µg/mL,Bacillus subtilis 964,19 mm
same,zone of inhibition at 1000 µg/mL,[3],16 mm
same,ED50,Strep. pyogenes,0.247 mg./mouse
same,efficacy in systemic infections produced by Bordetella bronchiseptica,[4],orally effective
same,zone of inhibition at 1000 µg/mL,S. aureus 3032,12 mm
same,in vitro activity,Bordetella,effective
same,activity against species of Mycoplasma,species of Mycoplasma,shows activity
same,zone of inhibition at 1000 µg/mL,Sarcina lutea 1101,28 mm
same,zone of inhibition at 1000 µg/mL,[5],11 mm
same,zone of inhibition at 1000 µg/mL,Erwinia auroseptica 1159,12 mm
same,efficacy against PPLO,PPLO [6],effective
same,in vitro activity,Streptococcus faecum,effective
same,zone of inhibition at 200 µg/mL,Vibrio percolans,16 mm
same,zone of inhibition at 1000 µg/mL,Ps. stutzeri 1231,10 mm
same,zone of inhibition at 1000 µg/mL,E. coli 60,10 mm
same,zone of inhibition at 1000 µg/mL,S. aureus 2756,23 mm
same,in vitro activity,E. acervulina,effective
same,efficacy against PPLO,PPLO [7],effective
same,zone of inhibition at 1000 µg/mL,Aerobacter aerogenes 835,13 mm
same,ED50,"M. gallisepticum; Mycoplasmoides gallisepticum, air sacculitis in broilers",40 to 100 mg/kg
same,efficacy against M. gallisepticum air sacculitis,"M. gallisepticum; subcutaneously, broilers",efficacious
same,activity,[8],Activity was also found
same,activity against gram-negative bacteria,gram-negative bacteria,shows activity; also recorded: effective
same,in vitro activity,Streptococcus faecalis,effective
same,zone of inhibition at 1000 µg/mL,Proteus vulgaris 1012,10 mm
same,"Toxicity, Tolerated",[9]; Table 2 line Proteus vulgaris,5.0 mg./mouse
same,"Toxicity, Toxic",[9]; Table 2 line Proteus vulgaris,5.0 mg./mouse
same,"Toxicity, Tolerated",[9]; Table 2 line Strep. pyogenes,1.25 mg./mouse
same,"Toxicity, Toxic",[9]; Table 2 line Strep. pyogenes,5.0 mg./mouse
same,toxicity in vivo,"[9]; in mice, in words",low toxicity
same,tolerated dose,"[9]; noninfected mice, two doses 6 hours apart",2.5 mg./mouse
same,activity,[10],Activity was also found
same,in vitro activity,species of Pasteurella,effective
same,zone of inhibition at 1000 µg/mL,Alcaligenes faecalis 10,19 mm
same,zone of inhibition at 1000 µg/mL,[11],13 mm
same,in vitro activity,M. arthritidis,effective
same,zone of inhibition at 1000 µg/mL,Bacillus sp. 633,18 mm
same,solubility in water-immiscible organic solvents,solubility,highly soluble
same,in vitro activity,Streptococcusagalactiae,effective
same,stability to normal handling,stability to handling,stable to normal handling
same,efficacy against mouse coccidiosis,coccidia,effective
